Experimental data from patent US10039747B2, “Tetrahydrocyclopentapyrrole derivatives and a method for preparing the same” (Daewoong Pharmaceutical Co., Ltd., priority 2013, dated 2018).
Counter-ions that a name gives are not always drawn.

target: T1, H+/K+-ATPase (Sus scrofa, UniProt P19156); experiment: Inhibition of proton pump (H+/K+-ATPase) activity in hog gastric vesicles; format: biochemical; settings: K+ specific H+/K+-ATPase activity, pH 7.4, 37° C. for 40 minutes, malachite green
T1 construct: reaction buffer solution (60 mmol/l Tris-HCl buffer solution, pH 7.4) containing hog gastric vesicle; from tissue; host or cells: hog stomach (gastric vesicles, by centrifugation after Rabon et al. 1988)
Summary of the method: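 Hog gastric vesicles in 60 mmol/l Tris-HCl pH 7.4 with compound, started with ATP, 40 min at 37° C. Pi read by malachite green at 570 nm; K+-specific activity taken as difference between +K+ and −K+ activity. IC50 from % inhibition by 4-parameter logistic fit.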

T1 sequence (P19156 2-1034 limits assumed): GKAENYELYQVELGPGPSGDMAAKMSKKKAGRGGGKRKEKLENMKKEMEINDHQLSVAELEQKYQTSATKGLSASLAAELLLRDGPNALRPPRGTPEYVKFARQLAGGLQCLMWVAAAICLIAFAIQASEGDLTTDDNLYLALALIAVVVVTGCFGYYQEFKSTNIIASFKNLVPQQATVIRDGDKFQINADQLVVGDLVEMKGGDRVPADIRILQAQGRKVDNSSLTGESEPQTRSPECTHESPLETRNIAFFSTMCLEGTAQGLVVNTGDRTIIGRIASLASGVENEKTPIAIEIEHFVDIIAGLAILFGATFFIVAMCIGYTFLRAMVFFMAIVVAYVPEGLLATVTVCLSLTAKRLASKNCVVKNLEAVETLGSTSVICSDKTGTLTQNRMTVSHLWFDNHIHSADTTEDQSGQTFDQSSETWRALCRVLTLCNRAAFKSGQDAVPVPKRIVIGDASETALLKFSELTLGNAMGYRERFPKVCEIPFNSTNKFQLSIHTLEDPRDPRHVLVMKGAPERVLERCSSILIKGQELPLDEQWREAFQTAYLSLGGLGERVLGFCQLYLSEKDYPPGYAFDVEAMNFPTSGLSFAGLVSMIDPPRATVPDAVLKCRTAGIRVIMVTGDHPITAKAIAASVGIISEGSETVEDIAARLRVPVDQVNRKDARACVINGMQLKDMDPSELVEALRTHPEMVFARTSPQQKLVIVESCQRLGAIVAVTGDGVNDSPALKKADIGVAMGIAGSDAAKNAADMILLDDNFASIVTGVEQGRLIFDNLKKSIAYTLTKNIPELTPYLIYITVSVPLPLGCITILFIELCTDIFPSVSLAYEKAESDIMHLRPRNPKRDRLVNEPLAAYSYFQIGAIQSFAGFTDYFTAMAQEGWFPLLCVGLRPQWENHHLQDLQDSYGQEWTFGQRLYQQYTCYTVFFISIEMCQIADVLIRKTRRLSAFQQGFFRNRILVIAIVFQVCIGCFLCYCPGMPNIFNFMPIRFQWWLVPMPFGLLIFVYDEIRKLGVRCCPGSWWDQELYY
T1 sequence (P18434 whole entry partner): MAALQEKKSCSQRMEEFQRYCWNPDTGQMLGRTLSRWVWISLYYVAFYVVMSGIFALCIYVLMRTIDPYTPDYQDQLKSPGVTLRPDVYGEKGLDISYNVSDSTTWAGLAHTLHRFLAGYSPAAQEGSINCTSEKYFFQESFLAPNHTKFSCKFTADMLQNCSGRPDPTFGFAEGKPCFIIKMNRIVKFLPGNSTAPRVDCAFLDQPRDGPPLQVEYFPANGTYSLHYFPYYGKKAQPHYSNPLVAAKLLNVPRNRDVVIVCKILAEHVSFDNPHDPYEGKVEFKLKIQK

| IC50 [µM] | SMILES |
| --- | --- |
| 1.72 | CNC1CCc2c1cn(S(=O)(=O)c1cncc(Cl)c1)c2-c1ccccc1F (stereo not shown) [Example 95, 2-((5-chloropyridin-3-yl)sulfonyl)-1-(2-fluorophenyl)-N-methyl-2,4,5,6-tetrahydrocyclopenta[c]pyrrol-4-amine] |
| 6.78 | CNC1CCc2c1cn(S(=O)(=O)c1ccc(C)nc1Cl)c2-c1ccccc1F (stereo not shown) [Example 99, 2-((2-chloro-6-methylpyridin-3-yl)sulfonyl)-1-(2-fluorophenyl)-N-methyl-2,4,5,6-tetrahydrocyclopenta[c]pyrrol-4-amine] |
| 7.24 | CNC1CCc2c1cn(S(=O)(=O)c1cc(C)cnc1Cl)c2-c1ccccc1F (stereo not shown) [Example 100, 2-((2-chloro-5-methylpyridin-3-yl)sulfonyl)-1-(2-fluorophenyl)-N-methyl-2,4,5,6-tetrahydrocyclopenta[c]pyrrol-4-amine] |
| 1.79 | CCNC1CCc2c1cn(S(=O)(=O)c1cccnc1)c2-c1ccccc1F (stereo not shown) [Example 103, N-ethyl-1-(2-fluorophenyl)-2-(pyridin-3-ylsulfonyl)-2,4,5,6-tetrahydrocyclopenta[c]pyrrol-4-amine] |
| 50 | CC(C)NC1CCc2c1cn(S(=O)(=O)c1cccnc1)c2-c1ccccc1F (stereo not shown) [Example 104, 1-(2-fluorophenyl)-N-isopropyl-2-(pyridin-3-ylsulfonyl)-2,4,5,6-tetrahydrocyclopenta[c]pyrrol-4-amine] |
| 3.3 | CNC1CC(C)(C)c2c1cn(S(=O)(=O)c1cccc(Cl)c1)c2-c1ccccc1F (stereo not shown) [Example 106, 2-((3-chlorophenyl)sulfonyl)-1-(2-fluorophenyl)-N,6,6-trimethyl-2,4,5,6-tetrahydrocyclopenta[c]pyrrol-4-amine] |
| 5.65 | CNC1CCc2c1cn(Cc1cccc(F)c1)c2-c1ccccc1F (stereo not shown) [Example 108, 2-(3-fluorobenzyl)-1-(2-fluorophenyl)-N-methyl-2,4,5,6-tetrahydrocyclopenta[c]pyrrol-4-amine] |
| 40 | CNC1NCc2c1cn(S(=O)(=O)c1cccc(Cl)c1)c2-c1ccccc1F (stereo not shown) [Example 115, 5-((3-chlorophenyl)sulfonyl)-4-(2-fluorophenyl)-N-methyl-1,2,3,5-tetrahydropyrrolo[3,4-c]pyrrol-1-amine hydrochloride] |
| 1.5 | CNC1CCCc2c1cn(S(=O)(=O)c1cccc(F)c1)c2-c1ccccc1F (stereo not shown) [Example 120, 1-(2-fluorophenyl)-2-((3-fluorophenyl)sulfonyl)-N-methyl-4,5,6,7-tetrahydro-2H-isoindole-4-amine] |
| 1.5 | CNC1CCCc2c1cn(S(=O)(=O)c1cccc(C)c1)c2-c1ccccc1F (stereo not shown) [Example 121, 1-(2-fluorophenyl)-N-methyl-2-(m-tolylsulfonyl)-4,5,6,7-tetrahydro-2H-isoindole-4-amine] |
| 1.5 | CNC1CCCc2c1cn(S(=O)(=O)c1cccc(OC)c1)c2-c1ccccc1F (stereo not shown) [Example 122, 1-(2-fluorophenyl)-2-((3-methoxyphenyl)sulfonyl)-N-methyl-4,5,6,7-tetrahydro-2H-isoindole-4-amine] |
| 2 | CNC1CCCc2c1cn(S(=O)(=O)c1cccc(OC(F)F)c1)c2-c1ccccc1F (stereo not shown) [Example 123, 2-((3-(difluoromethoxy)phenyl)sulfonyl)-1-(2-fluorophenyl)-N-methyl-4,5,6,7-tetrahydro-2H-isoindole-4-amine] |
| 4.18 | CNC1CCCc2c1cn(S(=O)(=O)c1cccc(C(F)(F)F)c1)c2-c1ccccc1F (stereo not shown) [Example 124, 1-(2-fluorophenyl)-N-methyl-2-((3-(trifluoromethyl)phenyl)sulfonyl)-4,5,6,7-tetrahydro-2H-isoindole-4-amine] |
| 4.42 | CNC1CCCc2c1cn(S(=O)(=O)c1cccc(OC(F)(F)F)c1)c2-c1ccccc1F (stereo not shown) [Example 125, 1-(2-fluorophenyl)-N-methyl-2-((3-(trifluoromethoxy)phenyl)sulfonyl)-4,5,6,7-tetrahydro-2H-isoindole-4-amine] |
| 4 | CNC1CCCc2c1cn(S(=O)(=O)c1cc(Cl)ccc1F)c2-c1ccccc1F (stereo not shown) [Example 126, 2-((5-chloro-2-fluorophenyl)sulfonyl)-1-(2-fluorophenyl)-N-methyl-4,5,6,7-tetrahydro-2H-isoindole-4-amine] |
| 50 | CNC1CCCc2c1cn(S(=O)(=O)c1cccc(Cl)c1)c2-c1ccncc1 (stereo not shown) [Example 128, 2-((3-chlorophenyl)sulfonyl)-N-methyl-1-(pyridin-4-yl)-4,5,6,7-tetrahydro-2H-isoindole-4-amine] |
| 1.5 | CNC1CCCc2c1cn(S(=O)(=O)c1cccc(N(C)C)c1)c2-c1ccccc1F (stereo not shown) [Example 130, 2-((3-(dimethylamino)phenyl)sulfonyl)-1-(2-fluorophenyl)-N-methyl-4,5,6,7-tetrahydro-2H-isoindole-4-amine] |

The next lines start with the compound.

| SMILES | IC50 [µM] |
| --- | --- |
| CNC1CCc2c1cn(S(=O)(=O)c1ccc(Oc3ccccc3)nc1)c2-c1ccccc1F (stereo not shown) [Example 96, 1-(2-fluorophenyl)-N-methyl-2-((6-phenoxypyridin-3-yl)sulfonyl)-2,4,5,6-tetrahydrocyclopenta[c]pyrrol-4-amine] | 0.8 |
| CNC1CCc2c1cn(S(=O)(=O)c1cnc3onc(C)c3c1)c2-c1ccccc1F (stereo not shown) [Example 97, 1-(2-fluorophenyl)-N-methyl-2-((3-methylisoxazolo[5,4-b]pyridin-5-yl)sulfonyl-)2,4,5,6-tetrahydrocyclopenta[c]pyrrol-4-amine] | 2.82 |
| CNC1CCc2c1cn(S(=O)(=O)c1ccc(OC)nc1Cl)c2-c1ccccc1F (stereo not shown) [Example 98, 2-((2-chloro-6-methoxypyridin-3-yl)sulfonyl)-1-(2-fluorophenyl)-N-methyl-2,4,5,6-tetrahydrocyclopenta[c]pyrrol-4-amine] | 3.62 |
| CNC1CCc2c1cn(S(=O)(=O)c1nccn1C)c2-c1ccccc1F (stereo not shown) [Example 101, 1-(2-fluorophenyl)-N-methyl-2-((1-methyl-1H-imidazol-2-yl)sulfonyl)-2,4,5,6-tetrahydrocyclopenta[c]pyrrol-4-amine] | 18.7 |
| CNC1CCc2c1cn(S(=O)(=O)c1cnc3c(c1)c(C)nn3C)c2-c1ccccc1F (stereo not shown) [Example 102, 2-((1,3-dimethyl-1H-pyrazolo[3,4-b]pyridin-5-yl)sulfonyl)-1-(2-fluorophenyl)-N-methyl-2,4,5,6-tetrahydrocyclopenta[c]pyrrol-4-amine] | 10 |
| CNC1CC(C)(C)c2c1cn(S(=O)(=O)c1cccnc1)c2-c1ccccc1F (stereo not shown) [Example 105, 1-(2-fluorophenyl)-N,6,6-trimethyl-2-(pyridin-3-ylsulfonyl)-2,4,5,6-tetrahydrocyclopenta[c]pyrrol-4-amine] | 8.5 |
| CNC1CCc2c1cn(Cc1cccc(Cl)c1)c2-c1ccccc1F (stereo not shown) [Example 107, 2-(3-chlorobenzyl)-1-(2-fluorophenyl)-N-methyl-2,4,5,6-tetrahydrocyclopenta[c]pyrrol-4-amine] | 2.86 |
| CNC1CCc2c1cn(Cc1ccccc1)c2-c1ccccc1F (stereo not shown) [Example 109, 2-benzyl-1-(2-fluorophenyl)-N-methyl-2,4,5,6-tetrahydrocyclopenta[c]pyrrol-4-amine] | 6.24 |
| CNC1CCc2c1cn(Cc1cccc(C)c1)c2-c1ccccc1F (stereo not shown) [Example 110, 1-(2-fluorophenyl)-N-methyl-2-(3-methylbenzyl)-2,4,5,6-tetrahydrocyclopenta[c]pyrrol-4-amine] | 2.89 |
| CNC1CCc2c1cn(Cc1cccc(OC)c1)c2-c1ccccc1F (stereo not shown) [Example 111, 1-(2-fluorophenyl)-2-(3-methoxybenzyl)-N-methyl-2,4,5,6-tetrahydrocyclopenta[c]pyrrol-4-amine] | 2.57 |
| CNC1CCc2c1cn(C(=O)c1cccc(Cl)c1)c2-c1ccc(F)cc1F (stereo not shown) [Example 114, (3-chlorophenyl)(1-(2,4-difluorophenyl)-4-(methylamino)-5,6-dihydrocyclopenta[c]pyrrol-2(4H)-yl)methanone] | 30.1 |
| Cc1oc(=O)oc1COC(=O)N(C)C1CCc2c1cn(S(=O)(=O)c1cccc(F)c1)c2-c1ccc(F)cc1F (stereo not shown) [Example 116, (5-methyl-2-oxo-1,3-dioxol-4-yl)methyl (1-(2,4-difluorophenyl)-2-((3-fluorophenyl)sulfonyl)-2,4,5,6-tetrahydrocyclopenta[c]pyrrol-4-yl)(methyl)carbamate] | 26.2 |
| Cc1oc(=O)oc1CN(C)C1CCc2c1cn(S(=O)(=O)c1cccc(F)c1)c2-c1ccc(F)cc1F (stereo not shown) [Example 117, 4-(((1-(2,4-difluorophenyl)-2-((3-fluorophenyl)sulfonyl)-2,4,5,6-tetrahydrocyclopenta[c]pyrrol-4-yl)(methyl)amino)methyl)-5-methyl-1,3-dioxol-2-one] | 2.44 |
| Cc1oc(=O)oc1COC(=O)N(C)C1CCc2c1cn(S(=O)(=O)c1cccc(Cl)c1)c2-c1ccccc1F (stereo not shown) [Example 118, (5-methyl-2-oxo-1,3-dioxol-4-yl)methyl (2-((3-chlorophenyl)sulfonyl)-1-(2-fluorophenyl)-2,4,5,6-tetrahydrocyclopenta[c]pyrrol-4-yl)(methyl)carbamate] | 40 |
| Cc1oc(=O)oc1CN(C)C1CCc2c1cn(S(=O)(=O)c1cccc(Cl)c1)c2-c1ccccc1F (stereo not shown) [Example 119, 4-(((2-((3-chlorophenyl)sulfonyl)-1-(2-fluorophenyl)-2,4,5,6-tetrahydrocyclopenta[c]pyrrol-4-yl)(methyl)amino)methyl)-5-methyl-1,3-dioxol-2-one] | 2.16 |
| CNC1CCCc2c1cn(S(=O)(=O)c1cccc(Cl)c1)c2-c1ccc(-c2ccccc2)cc1 (stereo not shown) [Example 127, 1-([1,1′-biphenyl]-4-yl)-2-((3-chlorophenyl)sulfonyl)-N-methyl-4,5,6,7-tetrahydro-2H-isoindole-4-amine] | 4.53 |
| CNC1CCCc2c1cn(S(=O)(=O)c1cccc(Cl)c1)c2-c1cncnc1 (stereo not shown) [Example 129, 2-((3-chlorophenyl)sulfonyl)-N-methyl-1-(pyrimidin-5-yl)-4,5,6,7-tetrahydro-2H-isoindole-4-amine] | 40 |
